US10617695B2, “Ophthalmic compositions containing alcaftadine” (Vistakon Pharmaceuticals, LLC, priority 2006, dated 2020)

Key:
[1] = molecular target: T1, human histamine H4 receptor (Homo sapiens, UniProt Q9H3N8); experiment: H4 receptor agonist assay: inhibition of forskolin-induced cAMP (reporter gene) in transfected SK-N-MC cells; assay type: cell-based
T1 construct: express a reporter gene construct and the human H4 receptor full-coding region; expressed in transfected cells; host or cells: SK-N-MC cells with a CRE-beta-galactosidase reporter
Protocol: (§1) Alcaftadine and 6,11-dihydro-11-(1-methyl-4-piperdinylidene)-5H-imidazo[2,1-b][3]benazepine-3-carboxylic acid (CAS #147083-93-0) were prepared at 10 mM in 100% dimethylsulfoxide (DMSO) for the binding assays and at 10 mM in Na/K phosphate buffer, pH 7.0, for the cellular assays. Cell pellets from SK-N-MC cells transfected with human H4 receptor were homogenized in 20 mM Tris-HCl/0.5 mM ethylendediaminetetraacetic acid (EDTA) pH 8.0 (TE buffer). Supernatants collected after centrifugation at 800 g were recentrifuged at 30,000 g for 30 min. Pellets were re-homogenized in TE buffer. […] Non-specific binding was defined with 100 μM cold histamine. […] Seven concentrations of compound were tested spanning 10^−11 to 10^−5 M with each concentration being run in triplicate. […] This assay was run twice and the results are reported as the average of the two runs. SK-N-MC cell lines were created that express a reporter gene construct and the human H4 receptor full-coding region. […] Color was quantitated on a microplate reader at absorbance 570 nm. […]
To test whether alcaftadine or 6,11-dihydro-11-(1-methyl-4-piperdinylidene)-5H-imidazo[2,1-b][3]benazepine-3-carboxylic acid (CAS #147083-93-0) were H4 receptor agonists, functional assays were carried out in SK-N-MC cells transfected with the human histamine H4 receptor. The ability of the compounds to inhibit forskolin-induced cAMP increases was assessed.

[2] = system: RBL-CCR1 (Rat Basophil Leukemia-Chemokine Receptor-1) cell line; experiment: Mast cell degranulation / cell stabilization in RBL-CCR1 cells; assay type: cell-based
Protocol: The cell stabilization potential of alcaftadine was evaluated using the RBL-CCR1 (Rat Basophil Leukemia-Chemokine Receptor-1) cell line as a way of investigating its ability to effect mast cell stabilization. The use of basophil cell lines to assess anti-allergic drugs for cell stabilization potential is well established. Physiologically, basophils are similar to mast cells, containing pre-formed inflammatory mediators that are released through a similar degranulation process involving IgE cross-linking. Because these cell lines are readily available, they present efficiencies over conducting stabilization assays in mast cell lines.
Cultured RBL-CCR1 cells were sensitized to anti-DNP IgE. Following sensitization, cells were treated with various concentrations of alcaftadine or its major active metabolite (0.083%, 0.0083% and 0.00083%) or ophthalmic vehicle (placebo), and stimulated with DNP and/or MIP-1a (Macrophage Inflammatory Protein-1 alpha, a degranulation enhancer) to induce degranulation. A 10× and 100× placebo control solution (ophthalmic vehicle solution) in D-DEM (Dulbecco's modified Eagle's medium) was also employed.
However, co-stimulation induced a robust degranulation response.

[3] = molecular target: T1, human histamine H4 receptor; experiment: [3H]histamine competition binding to membranes of SK-N-MC cells transfected with human H4 receptor; settings: average of two runs; 10 nM [3H]histamine; Cheng and Prusoff
[4] = molecular target: T1, human histamine H4 receptor; experiment: H4 receptor antagonist assay: shift of histamine EC50, Schild plot, in transfected SK-N-MC cells; assay type: cell-based
Protocol: as §1, with “region. The reporter gene was β-galactosidase under the control of cyclic adenosine monophosphate (cAMP) responsive elements. Cells were plated in 96-well plates the night before the assay. Antagonists were added 10 min prior to the addition of histamine, which was added directly to the cell medium. Forskolin (5 μM final concentration) was added 10 min after the addition of histamine. Cells were returned to the incubator for 6 h at 37° C. The medium was then aspirated and cells were lysed with 25 μL of 0.1× assay buffer (10 mM sodium phosphate, pH 8, 0.2 mM MgSO4, 0.01 mM MnCl2) and incubated at room temperature for 10 min.” for “region.”
To test whether alcaftadine or 6,11-dihydro-11-(1-methyl-4-piperdinylidene)-5H-imidazo[2,1-b][3]benazepine-3-carboxylic acid (CAS #147083-93-0) were antagonists of the H4 receptor, the ability of the compounds shift the EC50 of the histamine inhibition of forskolin-induced cAMP increases was assessed in SK-N-MC cells transfected with the human histamine H4 receptor. […]

[5] = Systemic (plasma) levels of the carboxylic acid in patients; assay type: in vivo, human; settings: for Cmax: plasma, other: ophthalmic solution, bilateral instillation, 0.25 % ophthalmic solution, 0.25% ophthalmic solution bilaterally
Protocol: Patients were bilaterally dosed with 0.25% ophthalmic solutions of 6,11-dihydro-11-(1-methyl-4-piperdinylidene)-5H-imidazo[2,1-b][3]benazepine-3-carboxylic acid for seven days. The plasma levels of those patients was assessed pre-dose, and 0.25, 0.5, 1, 1.5, 2, 3, 4, 6, 8, 12, and 18 hour post medication instillation on days one and seven.

agonist activity: inhibition of forskolin-induced cAMP levels [1]	Ki [3] [µM]	EC50 ([1]; absence of histamine, read-out: agonist activity: inhibition of forskolin-induced cAMP levels (highest concentration without agonism)) [µM]	antagonist activity: shift of histamine EC50 (highest concentration without shift) [4] [µM]	maximum plasma concentrations ([5]; human, in vivo) [ng/mL]	Cmax ([5]; human, Day 1) [ng/mL]	Cmax ([5]; human, Day 7) [ng/mL]	time by which plasma concentrations declined to below the lower limit of quantification ([5]; post dosing, lower limit of quantification 0.1 ng/mL) [h]	Compound	overall membrane stabilization [2]	stabilization effect added to that of placebo ([2]; 10× dose level)	degranulation at the highest concentration ([2]; […], DNP-HSA alone, MIP-1a alone, and co-stimulation)	cell stabilization compared to co-stimulation control and negative controls (placebo 10× and placebo 100×) ([2]; co-stimulation assay, concentrations of […] and […], p<0.0001 for both concentrations)
agonist								NCCc1c[nH]cn1 [histamine, reference compound]				
	> 10	> 100	> 100	7.23	3.23	2.71	≤ 12	CN1CCC(=C2c3ccccc3CCn3c(C(=O)O)cnc32)CC1 [6,11-dihydro-11-(1-methyl-4-piperdinylidene)-5H-imidazo[2,1-b][3]benazepine-3-carboxylic acid]	effective membrane stabilizing agents	enhanced the stabilization effect	unanticipated and significant degranulation	superior at cell stabilization
